Assay results as given in US8173360B2, “Cell death inhibitor” (Takeda Pharmaceutical Company Limited, priority 2002, dated 2012).

Key:
[1] = system: Human normal articular chondrocytes; experiment: Inhibitory activity against cell death of human articular chondrocytes induced by NO (MTT); assay type: cell-based; settings: for Cell Death Inhibition Rate: 1.5 mM sodium nitroprusside 5 hours, mean ±SD
Protocol: Human normal articular chondrocytes (Clonetics, Inc.) were proliferated in a growth medium for articular chondrocytes (CGM, Clonetics, Inc.) in monolayer culture. Then, the cells were suspended in 1.2% alginate-containing 155 mM NaCl solution in a density of 2.0×10^6 cells/ml, and beads having a 2 mm diameter were prepared using a syringe with a 22 gauge needle. The beads were incubated in a differentiation medium for articular chondrocytes (CDM, Clonetics, Inc.) charged in a 96-well round-bottomed plate (1 bead/well, manufactured by FALCON) for further 7 days. The medium was replaced by α-modified minimum essential medium containing Compound 1 (0.1 μM or 1 μM) and 10% fetal cow serum, followed by incubation for 48 hours and then for 5 hours in the co-presence of 1.5 mM sodium nitroprusside (NO generator, manufactured by Sigma). As control drugs, caspase 3 inhibitor (Z-DEVD-FMK (SEQ ID NO: 5), 100 μM, manufactured by R & D Systems, Inc.) and caspase 9 inhibitor (Z-LEHD-FMK (SEQ ID NO: 6), 100 μM, manufactured by R & D Systems, Inc.) were similarly monitored for their activities. After completion of the experiment, alginate was removed and the cell survival rate was determined by the MTT technique.
In the table, the numerical values indicate mean values (±SD) of the cell death inhibition rates as converted from the measurement data by the MTT technique. The cell survival rate after the addition of 1.5 mM sodium nitroprusside (without addition of either Compound 1 or control drug) was 31.9%.

[2] = system: Normal human umbilical vein endothelial cells; experiment: Inhibitory activity against serum depletion-induced cell death of vascular smooth muscle; assay type: cell-based; settings: serum-free MCDB131 medium, 3 days, WST-8
[3] = system: genes under control of Antioxidant response element (ARE); experiment: Gene expression analysis by DNA chip; assay type: cell-based, rat; settings: for Increasing Rate of Expression: 21 hours, without compound = 1
Protocol: After gently stiffing, the plate was washed 3 times with Medium 199 medium to remove serum. […] The medium was then removed and total RNA was recovered using RNeasy Mini Kit (manufactured by QIAGEN). Using the total RNA, exhaustive analysis of gene expression was performed on GeneChip arrays for expression analysis (Rat Genome U34A Arrays: manufactured by AFFYMETRIX). The increasing rate of expression of each gene was expressed in terms of the expression level with the addition of the compound, when the expression level without addition of any compound was made 1.

[4] = system: primary cardiomyocytes derived from rat neonates; experiment: Inhibition of serum depletion-induced myocardial cell death (WST-8 viable cell count); assay type: cell-based
Excerpt: Neonates (within one day after birth) were obtained from pregnant Wistar rats purchased from Charles River Japan, Inc. and anesthetized with ether. After sterilization with 70% ethanol, the heart was removed with forceps. After washing with phosphate buffered saline (manufactured by Takara Co., Ltd., T900), the heart removed was minced with surgical scissors. The pieces of tissue were washed 4 or 5 times with phosphate buffered saline to remove most of non-cardiomyocytes derived from blood. To the pieces of tissue corresponding to 10 neonates, 5 ml of an enzyme solution [which is a solution of trypsin (1.25 mg) (manufactured by Difco) and collagenase (0.25 mg) (manufactured by Sigma) in phosphate buffer (1 ml)] was added. The mixture was stirred for 15 minutes with a stirrer while maintaining at 37° C. After 2.5 ml of the enzyme solution was replenished, the mixture was stirred for further 15 minutes, and this procedure was repeated twice. Subsequently, Medium 199 (manufactured by Gibco) containing 10% fetal cow serum (manufactured Biowicker, Inc.) was added to the mixture in a half volume of the enzyme solution to terminate the enzymatic reaction. After filtering through a cell strainer (manufactured by Falcon), the mixture was centrifuged at 400×g for 5 minutes to collect the cells.
The cells were then recovered, filtered through a cell strainer and centrifuged at 400×g for 5 minutes to collect primary cardiomyocytes derived from rat neonates.
Next, the primary cardiomyocytes derived from rat neonates (corresponding 10 neonates) were suspended in 2 ml of a hypotonic solution [solution obtained by dissolving NH4Cl (8.29 g), KHCO3 (1.0 g) and EDTA/2Na (ethylenediaminetetraacetic acid disodium; manufactured by Dojin Chemical Laboratory) (37 mg) in water (1 L)]. The suspension was allowed to stand for 3 minutes to disrupt erythrocytes. To the suspension 10 ml of Medium 199 containing 10% fetal cow serum was added, and the mixture was centrifuged at 400×g for 5 minutes to collect the primary cardiomyocytes derived from rat neonates. […] An aliquot of the cardiomyocytes suspension obtained was taken out and 0.3% trypan blue was added thereto. The mixture was gently stirred and the count of cardiomyocytes was counted with a hemocytometer.
Incubation was continued for further 4 days to induce cell death. […]
The mean value (±SD) in the minimum effective concentration of Compound 1 required for inhibiting the cell death was 0.015±0.011 μM. The concentration of Compound 1 required for increasing the mean cell count by 30% when compared to the cell count without the addition of Compound 1 was determined to be the minimum effective concentration. […]

O=c1nc(-c2ccccn2)sc2ccccc12 [Compound 1, 2-(2-Pyridyl)-4H-1,3-benzothiazin-4-one]
Cell Death Inhibition Rate ([1]; 0.1 μM): 44.7 ± 0.9
Cell Death Inhibition Rate ([1]; 1 μM): 57.6 ± 7.0
inhibitory activity against cell death of human articular chondrocytes induced by NO ([1]; statement in words): has the inhibitory activity against the cell death of human articular chondrocytes induced by NO
inhibition of cell death induced by serum depletion [2]: exhibits the activity of inhibiting vascular smooth muscle cell death induced by serum depletion
Increasing Rate of Expression ([3]; Bilirunin-specific UDP-glucuronosyltransferase): 5.2
Increasing Rate of Expression ([3]; Gamma-glutamylcysteine synthetase): 2.4
Increasing Rate of Expression ([3]; Glutathione S-transferase Yb subunit): 2.5
Increasing Rate of Expression ([3]; Glutathione S-transferase Yc1 subunit): 2.1
Increasing Rate of Expression ([3]; Heme oxygenase-1): 2.0
Increasing Rate of Expression ([3]; Liver glutathione S-transferase Ya subunit): 11.6
Increasing Rate of Expression ([3]; Liver glutathione S-transferase Yc subunit): 2.3
Increasing Rate of Expression ([3]; NAD(P)H-menadione oxidereductase): 2.8
Increasing Rate of Expression ([3]; NAD(P)H: quinone reductase): 9.4
Increasing Rate of Expression ([3]; UDP-glucuronosyltransferase, exon 1): 5.0
expression of the genes under control of Antioxidant response element (ARE) ([3]; statement in words): enhances expression of the genes under control of Antioxidant response element (ARE)
minimum effective concentration required for inhibiting the cell death ([4]; concentration increasing mean cell count by 30% vs no compound, serum-free 4 days, mean ±SD, 3 runs): 0.015 ± 0.011 µM
myocardial cell death inhibitory activity ([4]; serum depletion, 4 days, WST-8 viable cell count): exhibit the activity of inhibiting myocardial cell death
